Data taken from patent US8278337B2, “Substituted pyridines that are JNK inhibitors” (Merck Sharp & Dohme, priority 2006, dated 2012).
Several values for one entry are separate records, joined by “and”; a condition that tells them apart may be missing. Identical values can stand only once. Like-named read-outs stand apart in the source and are kept apart here.

Biological target: JNK1 (Homo sapiens, UniProt P45983)
Experiment: DELFIA kinase assay, JNK1
Format: biochemical
Method: Assay DELFIA (Dissociation Enhanced Lanthanide Fluorescence Immuno-Assay) Assay:
Before initiation of kinase reactions, compounds were pre-incubated with the enzyme for 10 minutes. Pre-incubation reactions contained 50 mM HEPES pH 7.3, 10 mM MgCl2, 1 mM DTT, 75 mM NaCl, 1 mM EDTA, 1 mM EGTA, 0.01% CHAPS, 2 nM JNK1, 6 ug/mL biotinylated GST-ATF2, 0.1 mg/ml BSA, 5% DMSO and 0-100 μM compound in a total volume of 40 μL. After a 10 minute room temperature pre-incubation, 10 μL of 35 μM ATP was added to start the reaction (final concentration of ATP=7 uM). Reactions were incubated at room temperature for 30 minutes. A small aliquot (10 uL) was taken and quenched by adding into 190 uL of DELFIA Assay buffer containing 100 mM EDTA. The amount of phosphate transferred to biotinylated GST-ATF2 was measured using the Dissociation Enhanced Lanthanide Fluorescence Immuno-assay (DELFIA) from Perkin Elmer according to manufacturers protocol. Briefly, biotinylated GST-ATF2 was captured on streptavidin coated plates for 1 hour, washed twice, then incubated for 1 hour with a 1:1000 dilution of rabbit-anti-phospho-ATF2 antibody and a 1:3500 dilution of Europium-labeled anti-rabbit secondary antibody. Free antibody was removed with six washes, Europium was dissociated from the antibody, and Europium fluorescence was measured using an excitation wavelength of 340 nm and an emission wavelength of 615 nm. JNK2 and JNK3 kinase reactions were carried out similarly, with the exception that the final concentration of ATP was 4 uM and 2 uM, respectively.

[1] = DELFIA, biotinylated GST-ATF2 substrate, 10 minute pre-incubation, final ATP 7 uM

Chain of JNK1 (P45983 whole entry, species assumed): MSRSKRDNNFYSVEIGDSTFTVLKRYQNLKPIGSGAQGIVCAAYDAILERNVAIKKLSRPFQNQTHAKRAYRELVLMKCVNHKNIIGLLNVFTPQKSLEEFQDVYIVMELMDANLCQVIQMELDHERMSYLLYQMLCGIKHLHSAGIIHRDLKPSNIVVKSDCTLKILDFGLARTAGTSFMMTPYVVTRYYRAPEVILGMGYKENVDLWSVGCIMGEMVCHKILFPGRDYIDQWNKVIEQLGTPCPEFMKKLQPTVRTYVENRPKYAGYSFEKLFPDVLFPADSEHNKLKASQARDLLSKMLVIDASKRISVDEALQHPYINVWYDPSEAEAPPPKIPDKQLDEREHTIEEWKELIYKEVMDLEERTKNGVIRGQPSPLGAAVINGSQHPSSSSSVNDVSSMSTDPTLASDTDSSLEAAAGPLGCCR

IC50 [1] | IC50 (DELFIA assay, 2 nM JNK1, 7 uM ATP, 10 min pre-incubation) [µM] | IC50 (DELFIA assay, 2 nM JNK1, 7 uM ATP, 10 min pre-incubation, second table, read-out: JNK 1 IC50) [µM] | Structure (SMILES)
0.102 to 0.959 µM |  |  | CS(=O)(=O)c1ccc(CNC(=O)c2cccc(-n3cc(Br)cn3)n2)cc1 [Compound 328]
0.004 to 0.097 µM and 0.004 to 0.019 µM | 0.008 | 0.008 | Cc1nc2ccc(-n3cc(CNC(=O)c4cccc(C(=O)NC(C)C)n4)cn3)cc2n1C(C)C [Compound 228]
> 1 µM and 1.03 to 10 µM |  |  | CS(=O)(=O)c1ccc(CNC(=O)c2cccc(-c3ccccc3F)n2)cc1 [Compound 316]
> 1 µM and 1.03 to 10 µM |  |  | CS(=O)(=O)c1ccc(CNC(=O)c2cccc(-n3cc(-c4ccc(F)cc4)cn3)n2)cc1 [Compound 321]
> 1 µM and 1.03 to 10 µM |  |  | CCOC(=O)N1CCC(NC(=O)c2cc(-c3cccs3)cc(C(=O)NCc3ccc(S(C)(=O)=O)cc3)n2)CC1 [Compound 414]
> 1 µM |  |  | Nc1nc2ccc(CNC(=O)c3cccc(C(=O)N[C@H](CO)Cc4ccccc4)n3)cc2s1 [Compound 22]
0.102 to 0.959 µM |  |  | CCOC(=O)N1CCC(NC(=O)c2cccc(C(=O)NCc3ccc(-n4cccn4)cc3)n2)CC1 [Compound 72]
> 1 µM |  |  | Nc1nc2ccc(CNC(=O)c3cccc(C(=O)NC[C@@H](O)c4ccccc4)n3)cc2s1 [Compound 24]
0.102 to 0.959 µM |  |  | CC(C)NC(=O)c1cccc(C(=O)NCc2cnn(-c3ccccc3Cl)c2)n1 [Compound 157]
0.004 to 0.097 µM |  |  | CC(C)NC(=O)c1cccc(C(=O)NCc2ccc3nc(NC(=O)N(C)C)sc3c2)n1 [Compound 207]
> 1 µM |  |  | Nc1nc2ccc(CNC(=O)c3cccc(C(=O)N4CCC(O)CC4)n3)cc2s1 [Compound 35]
0.004 to 0.097 µM |  |  | CC(C)NC(=O)c1cccc(C(=O)NCc2cnn(-c3ccc(F)c(C(F)(F)F)c3)c2)n1 [Compound 150]
0.004 to 0.097 µM |  |  | CC(C)NC(=O)c1cccc(C(=O)NCc2cnn(-c3ccc(F)c(Cl)c3)c2)n1 [Compound 131]
> 1 µM |  |  | CCS(=O)(=O)N1CCC(NC(=O)c2cccc(C(=O)NCc3ccc(S(C)(=O)=O)cc3)n2)CC1 [Compound 60]
0.102 to 0.959 µM |  |  | CS(=O)(=O)c1ccc(CNC(=O)c2cccc(-c3nc4ccccc4[nH]3)n2)cc1 [Compound 376]
0.102 to 0.959 µM |  |  | CS(=O)(=O)c1ccc(CNC(=O)c2cccc(-n3cc(I)cn3)n2)cc1 [Compound 318]

IC50 [1] | IC50 (DELFIA assay, 2 nM JNK1, 7 uM ATP, 10 min pre-incubation) [µM] | IC50 (DELFIA assay, 2 nM JNK1, 7 uM ATP, 10 min pre-incubation, second table, read-out: JNK 1 IC50) [µM] | Structure (SMILES)
> 1 µM and 1.03 to 10 µM |  |  | CCOC(=O)N1CCC(NC(=O)c2cccc(C(=O)NCc3ccc(C)c(F)c3)n2)CC1 [Compound 73]
0.004 to 0.097 µM |  |  | Nc1nc2ccc(CNC(=O)c3cccc(C(=O)NC4CCC4)n3)cc2s1 [Compound 11]
0.004 to 0.097 µM |  |  | CC(C)NC(=O)c1cccc(C(=O)NCc2cnn(-c3cncc(C#N)c3)c2)n1 [Compound 161]
0.102 to 0.959 µM |  |  | CC(C)NC(=O)c1cccc(C(=O)NCc2cnn(-c3cc(F)cc(C#N)c3)c2)n1 [Compound 162]
> 1 µM |  |  | CCOC(=O)N1CCC(NC(=O)c2cccc(C(=O)NCc3ccc4c(c3)OCO4)c2)CC1 [Compound 372]
0.102 to 0.959 µM |  |  | CC(C)(C)c1nnc(-c2cccc(C(=O)NCc3cnn(-c4ccc(S(C)(=O)=O)cc4)c3)n2)o1 [Compound 302]
0.102 to 0.959 µM |  |  | CS(=O)(=O)c1ccc(CNC(=O)c2cccc(-n3cc(-c4cnccn4)cn3)n2)cc1 [Compound 335]
> 1 µM and 1.03 to 10 µM |  |  | CCOC(=O)N1CCC(NC(=O)c2cccc(NC(C)=O)n2)CC1 [Compound 399]
0.004 to 0.097 µM |  |  | CC(C)NC(=O)c1cccc(C(=O)NCc2cnn(-c3cncc(F)c3)c2)n1 [Compound 153]
1.03 to 10 µM and > 1 µM |  |  | Cc1cnn(-c2cccc(C(=O)NCc3ccc(S(C)(=O)=O)cc3)n2)c1 [Compound 323]
0.102 to 0.959 µM |  |  | CC(C)NC(=O)c1cccc(C(=O)NCc2ccc(-c3cccc(C#N)c3)cc2)n1 [Compound 194]
> 1 µM and 1.03 to 10 µM |  |  | CC(C)NC(=O)c1cccc(C(=O)NNc2ccc(S(C)(=O)=O)cc2)n1 [Compound 122]
0.102 to 0.959 µM |  |  | CC(C)NC(=O)c1cccc(C(=O)NCc2ccc(N3CCOCC3)nc2)n1 [Compound 115]
0.004 to 0.097 µM |  |  | CC(C)NC(=O)c1cccc(C(=O)NCc2cncc(-c3cccc(S(C)(=O)=O)c3)c2)n1 [Compound 256]
0.102 to 0.959 µM |  |  | CS(=O)(=O)c1ccc(CNC(=O)c2cccc(-n3ncc4ccccc43)n2)cc1 [Compound 322]
